The values below come from patent US7238691B2, “Piperidine derivatives and their use as modulators of chemokine (especially CCR3) activity” (AstraZeneca AB, priority 2001, dated 2007).

The target in one test is T1, human H1 receptor (Homo sapiens, UniProt P35367).
T1 construct: purchased Furoscreen S A, Brussels, Belgium (so in the source); host or cells: CHO-K1
Nature of the test: Histamine H1 receptor binding, competition displacement of [3H]-pyrilamine. The settings on record: 1 nM [3H]-pyrilamine; membranes from recombinant CHO-K1 cells expressing the human H1 receptor; 1 hour at room temperature; read-out: H1 pKi/ [1328_S] (converted). The method, then:
Histamine H1 receptor binding activity of compounds of the invention was assessed by competition displacement of 1 nM [3H]-pyrilamine (Amersham, Bucks, Product code TRK 608, specific activity 30Ci/mmol) to 2 μg membranes prepared from recombinant CHO-K1 cells expressing the human H1 receptor (Furoscreen S A, Brussels, Belgium, product code ES-390-M) in assay buffer (50 mM Tris pH 7.4 containing 2 mM MgCl2, 250 mM sucrose and 100 mM NaCl) for 1 hour at room temperature.
A general note: In a radioligand displacement assay an active substance lowers the binding of a labelled ligand.

The target in the next test is T2, CCR3 (Homo sapiens, UniProt P51677).
T2 construct: Human eosinophils were isolated from EDTA anticoagulated peripheral blood; endogenous in cells; host or cells: human peripheral blood eosinophils
T2 sequence (P51677 1-355): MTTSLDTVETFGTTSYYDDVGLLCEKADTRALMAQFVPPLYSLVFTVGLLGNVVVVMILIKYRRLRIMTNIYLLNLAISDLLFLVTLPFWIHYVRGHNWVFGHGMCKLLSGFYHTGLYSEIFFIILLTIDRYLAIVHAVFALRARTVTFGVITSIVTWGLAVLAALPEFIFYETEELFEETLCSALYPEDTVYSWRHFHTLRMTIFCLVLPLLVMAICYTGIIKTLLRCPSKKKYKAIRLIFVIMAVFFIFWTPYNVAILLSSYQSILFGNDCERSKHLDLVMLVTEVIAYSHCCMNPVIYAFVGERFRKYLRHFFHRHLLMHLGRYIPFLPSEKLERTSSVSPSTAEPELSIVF
Put plainly: Human eosinophil chemotaxis (eotaxin mediated). The settings on record: compound at 1 μM. Type of test: cell-based. As for the experimental part: Human Eosinophil Chemotaxis
Human eosinophils were isolated from EDTA anticoagulated peripheral blood as previously described (Hansel et al., J. Immunol. Methods, 1991, 145, 105-110). The cells were resuspended at 10×10^6 ml^−1 in RPMI containing 200 μg/ml penicillin, 200 μg/ml streptomycin sulfate and supplemented with 10% HIFCS, at room temperature.
Eosinophils (700 μl) were pre-incubated for 15 mins at 37° C. with 7 μl of either vehicle or compound (100× required final concentration in 10% DMSO). The chemotaxis plate (ChemoTx, 3 μm pore, Neuroprobe) was loaded by adding 28 μl of a concentration of eotaxin 0.1 to 100 nM (a selective CCR3 agonist over this concentration range) containing a concentration of a compound according to the Examples or solvent to the lower wells of the chemotaxis plate. The filter was then placed over the wells and 25 μl of eosinophil suspension were added to the top of the filter. The plate was incubated for 1 hr at 37° C. in a humidified incubator with a 95% air/5% CO2 atmosphere to allow chemotaxis.
The medium, containing cells that had not migrated, was carefully aspirated from above the filter and discarded. The filter was washed once with phosphate buffered saline (PBS) containing 5 mM EDTA to remove any adherent cells. […] The number of eosinophils migrating was quantified according to the method of Strath et al., J. Immunol. […]

Each structure is given as a SMILES string. A value given as a limit tells only on which side of the number the result lay.

T1 sequence (P35367 whole entry): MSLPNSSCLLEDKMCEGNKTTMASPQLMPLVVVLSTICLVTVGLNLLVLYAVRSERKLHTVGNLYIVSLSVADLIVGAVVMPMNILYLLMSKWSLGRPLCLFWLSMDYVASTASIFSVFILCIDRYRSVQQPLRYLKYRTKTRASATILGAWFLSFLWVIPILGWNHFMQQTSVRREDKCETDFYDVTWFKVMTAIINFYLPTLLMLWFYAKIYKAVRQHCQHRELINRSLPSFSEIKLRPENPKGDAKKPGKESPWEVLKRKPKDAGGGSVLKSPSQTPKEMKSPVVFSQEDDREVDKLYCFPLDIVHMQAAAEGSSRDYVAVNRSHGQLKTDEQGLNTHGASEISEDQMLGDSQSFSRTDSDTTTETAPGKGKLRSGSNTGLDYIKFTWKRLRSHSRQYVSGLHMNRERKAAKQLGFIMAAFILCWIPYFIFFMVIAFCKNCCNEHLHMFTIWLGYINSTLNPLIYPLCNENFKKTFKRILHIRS

In the case of `O=C(c1cn2cc(F)ccc2n1)N1CCOC(CN2CCC(Oc3ccc(Cl)c(Cl)c3)CC2)C1` (stereo not drawn) [Example 3, 2-[(2-{[4-(3,4-dichlorophenoxy)piperidin-1-yl]methyl}morpholin-4-yl)carbonyl]-6-fluoroimidazo[1,2-a]pyridine], at human H1 receptor, the Ki was 12.6 nM. Same read-out and setting: to `CS(=O)(=O)c1cccc(C(=O)N2CCOC(CN3CCC(Oc4ccc(Cl)c(Cl)c4)CC3)C2)c1` (stereo not drawn) [Example 4, 2-{[4-(3,4-dichlorophenoxy)piperidin-1-yl]methyl}-4-[3-(methylsulfonyl)benzoyl]morpholine] belongs 100 nM.

On to `CS(=O)(=O)c1cccc(C(=O)N2CCO[C@@H](CN3CCC(Oc4ccc(Cl)c(Cl)c4)CC3)C2)c1` [Example 5, (2S)-2-{[4-(3,4-Dichlorophenoxy)piperidin-1-yl]methyl}-4-[3-(methylsulfonyl)benzoyl]morpholine], for which the inhibition at 1 µM against CCR3 was greater than 75%. Moreover, on human H1 receptor, the Ki is 20 nM. The matching figures for `O=C(c1c[nH]c(=O)c2ccccc12)N1CCO[C@H](CN2CCC(Oc3ccc(Cl)c(Cl)c3)CC2)C1` [Example 73]: greater than 75% and 7.94 nM.

For orientation: inhibition means the share of the control response that was lost under treatment. Higher therefore signals a strong effect.
